# Test results published in patent EP3069727B1, “PHARMACEUTICAL COMPOSITION FOR CANCER PREVENTION AND TREATMENT CONTAINING PEPTIDE ORIGINATED FROM C12ORF59 PROTEIN AS AN ACTIVE INGREDIENT” (Korea Research Institute of Bioscience and Biotechnology, priority 2015, dated 2018).
# Residues, ends and D or L forms follow the SMILES beside them.
# Experiments:
# [1] = tested on: C8161 (human melanoma) cells; test: In vivo experimental metastasis mouse model; parameters: species or system Nude mice (BALB/c-nude); settings: 200µg/100µℓ PBS intravenously twice per week (total 7 times); 4 weeks; vs PBS
# Experimental: In vivo therapeutic efficacy of A_intact peptide was evaluated using experimental metastasis mouse model. The in vivo experimental metastasis model was constructed as described below.
# Nude mice (BALB/c-nude, 6 weeks old, female) were obtained from Charles River Japan (Japan). C8161 (human melanoma) cells (8 x 10^5 cells in 100 µℓ PBS per mouse) were injected into the tail vein. Two days later, mice were randomized into control and treatment groups (n=5 per group) . Modified A_intact peptide (200µg/100µℓ PBS) or A_intact-Fc fusion protein (100µg/100µℓ PBS) were intravenously injected into each mouse twice per week (total 7 times). As a negative control, PBS (100µℓ/mouse) was injected. All animals were killed at 4 weeks after injection of cancer cells. Lung and liver were excised and fixed in 10% formalin for 24 h. Metastatic foci on the surface of lung and liver were counted.
# colorectal cancer cells = test: Cellular survival rate of colorectal cancer cells measured by absorbance; format: cell-based; settings: as in Example <3-2>
# Experimental: (§1) Particularly, 100 µℓ of poly-HEMA (Sigma) at the concentration of 12 mg/mℓ was loaded in 96-well plate, which stood in clean bench for 1 day, followed by drying. On the next day, the plate was coated with Poly-HEMA once again. Cells were distributed in the poly-HEMA coated plate by 100 µℓ/well (1×10^4 cells/well). At that time, serum-free medium was used. 6 days later, 10 µℓ of CCK-8 reagent (Dojindo cat. CK04-13) was added to each well, followed by reaction for 3 hours. Then, OD450 was measured.
# In particular, a cellular survival rate was measured using absorbance in the same manner as in Example <3-2>.
# SW480sub cells = test: Invasion assay (Matrigel-coated transwell, collagen type I chemoattractant) with peptide-treated SW480sub cells; format: cell-based; settings: for invasion reduced compared to the vehicle control: peptide 50 µM
# Experimental: SW480sub was subpopulation of SW480 having high in vitro invasion and in vivo metastasis ability. The effect of each peptide on colorectal cancer cell invasion was analyzed using the said SW480sub. SW480sub cells were mixed with each peptide, followed by pre-incubation for 30 minutes.
# (§2) Particularly, the porous membrane of 24-well transwell plate (8 µm pore size; Costar, USA) was coated with 100 µℓ of matrigel (BD Biosciences, USA) diluted in serum free medium at the concentration of 250 µg/mℓ, which stood at room temperature for 1 hour for fixing. The lower part of the transwell plate was coated with 100 µℓ of collagen type I (Sigma) at the concentration of 20 µg/mℓ. The said collagen type I was used as a chemoattractant. 1×10^4 cells resuspended in serum free medium were distributed in the upper chamber of the said 24-well transwell plate, followed by culture at 37°C with 5% CO2 for 48 hours, during which the cells were induced to migrate from the upper chamber to the lower chamber. The non-migrated cells were eliminated from the surface of the upper chamber. […] The excessive crystal violet solution was washed off with distilled water. The selected area (×100) was photographed. The number of the cells migrated was counted from 5 different selected areas. Then, mean value and standard error were obtained.
# SW480 cells [2] = test: Invasion assay with peptide-treated SW480 cells; format: cell-based; settings: concentration not given
# Experimental: as §2
# SW480 colorectal cancer cells were treated with peptides originated from C12orf59, and effects of the peptids on invasion of the cells were analyzed.
# SW480 cells [3] = test: Cell survivability under anchorage independent condition (poly-HEMA plate, CCK-8, OD450); format: cell-based; settings: peptide 100 µg/mℓ, 6 days
# Experimental: 6 days later, cell survivability was measured by colorimetric technique under the anchorage independent condition.
# as §1
# [4] = tested on: C8161 (human melanoma) cell line; test: Invasion assay with C8161 cells (Matrigel-coated Transwell); format: cell-based; settings: 24 h
# Experimental: Specifically, C8161 (human melanoma) cell line was cultured in DMEM containing 10% FBS, penicillin-streptomycin, L-glutamine, sodium pyruvate and glucose. C8161 cells (1 x 10^4) in the presence of the peptide were plated in serum-free medium on 24-well Transwell inserts (8 µm pore size; Costar, USA) coated with 25 µg of […] (BD Biosciences, USA). The underside of the insert was coated with 100 µℓ of collagen type I (Sigma) at the concentration of 5 µg/mℓ. […] The number of cells that had invaded was counted in five representative fields per insert. Then, mean value and standard deviation were obtained.
compound,measurement,setting,value
CC(=O)N[C@@H](CCC(=O)O)C(=O)N[C@@H](CCC(=O)O)C(=O)N[C@@H](CC(N)=O)C(=O)N[C@@H](CS)C(=O)NCC(=O)N[C@@H](CC(N)=O)C(=O)N1CCC[C@H]1C(=O)N[C@@H](CCC(=O)O)C(=O)N[C@@H](Cc1c[nH]cn1)C(=O)N[C@@H](CS)C(=O)N[C@@H](CC(C)C)C(=O)N[C@H](C(=O)N[C@H](C(=O)N[C@@H](CC(=O)O)C(=O)N[C@@H](Cc1c[nH]c2ccccc12)C(=O)N[C@H](C(=O)N[C@@H](Cc1c[nH]cn1)C(N)=O)C(C)C)[C@@H](C)O)[C@@H](C)O [Modified A_intact peptide] (Ac-EENCGNPEHCLTTDWVH-NH2),metastasis to the liver (metastatic nodules),[1],inhibited
same,metastasis to the lung (metastatic nodules),[1],inhibited
SWRPQPCCISSCCLT [B_C-term1],effect on the survival of colorectal cancer cells,colorectal cancer cells,inhibitory effects on the survival of colorectal cancer cells in a concentration-dependent manner
same,invasion reduced compared to the vehicle control,SW480sub cells,73%
same,invasion of cells reduced by,SW480 cells [2],45%
PCCISSCCLTTDWVH [B_N-term],effect on the survival of colorectal cancer cells,colorectal cancer cells,inhibitory effects on the survival of colorectal cancer cells in a concentration-dependent manner
same,invasion of cells reduced by,SW480 cells [2],55%
"SWRPQPCCISSCCLTTDWVH [B_intact, fragment of C12orf59 isoform 2 extracellular domain, 20 amino acids]",cell survivability reduced by,SW480 cells [3],90%
same,invasion rate reduced compared to the control,SW480sub cells; peptide 43 µM,29%
same,colorectal cancer cell invasion reduced by,"SW480sub cells; peptide 100 µg/mℓ, 48 hours",90%
same,C8161 invasion reduced by,[4]; 30 µg/mℓ,48%
same,C8161 invasion reduced by,[4]; 100 µg/mℓ,70%
same,invasion of cells reduced by,SW480 cells [2],47%
PCCISSCCLT [B_Cen],invasion reduced compared to the vehicle control,SW480sub cells,33%
